Assay results: patent US9580427B2, “Kinase inhibitors” (The Regents of the University of California, priority 2011, dated 2017)
pIC50: −log10 of the molar value.

These compounds were tested against BTK (Homo sapiens, UniProt Q06187) (assay: Reversibility of binding: compound in solution before and after perturbation of the target (HPLC-MS/MS)). Conditions: after 5 M guanidine hydrochloride denaturation and trypsin digestion.
Procedure: The following approach was developed to differentiate compounds that form irreversible bonds with their targets, such as acrylamide compounds, from compound that bind reversibly. […] The reactions were then treated with perturbations including both denaturation with 5 M guanidine hydrochloride and digestion with trypsin, disrupting proper folding of the target. […] The concentration of compound in solution was assessed both preceding and following perturbation using high performance liquid chromatography (HPLC) coupled to tandem mass spectrometry.

Chain of BTK (Q06187 whole entry): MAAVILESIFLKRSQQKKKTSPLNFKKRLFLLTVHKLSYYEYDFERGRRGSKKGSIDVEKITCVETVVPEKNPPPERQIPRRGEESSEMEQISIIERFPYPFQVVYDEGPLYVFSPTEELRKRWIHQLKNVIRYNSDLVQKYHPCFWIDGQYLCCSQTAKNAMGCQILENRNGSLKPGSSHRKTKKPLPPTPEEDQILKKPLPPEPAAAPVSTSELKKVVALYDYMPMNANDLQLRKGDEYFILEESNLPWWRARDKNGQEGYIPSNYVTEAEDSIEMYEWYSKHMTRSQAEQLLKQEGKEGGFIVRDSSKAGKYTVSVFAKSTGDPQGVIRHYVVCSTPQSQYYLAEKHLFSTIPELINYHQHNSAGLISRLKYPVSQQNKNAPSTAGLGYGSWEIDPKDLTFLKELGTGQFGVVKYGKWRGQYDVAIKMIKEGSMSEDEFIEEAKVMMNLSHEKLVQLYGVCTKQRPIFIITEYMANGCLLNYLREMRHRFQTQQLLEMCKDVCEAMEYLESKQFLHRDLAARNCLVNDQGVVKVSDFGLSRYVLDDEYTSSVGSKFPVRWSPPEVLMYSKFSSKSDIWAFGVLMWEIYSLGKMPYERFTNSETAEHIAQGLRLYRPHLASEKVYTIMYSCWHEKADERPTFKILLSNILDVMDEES

Compound in solution in the denatured or digested state?	SMILES
yes	N#C/C(=C\C1CC1)C(=O)N1CCCC(Cn2nc(-c3ccc(Oc4ccccc4)cc3)c3c(N)ncnc32)C1 (centres unmarked) [drawing 187]

Same assay, conditions: protein target in excess over compound, native state

Compound in solution in the native state?	SMILES
no	N#C/C(=C\C1CC1)C(=O)N1CCCC(Cn2nc(-c3ccc(Oc4ccccc4)cc3)c3c(N)ncnc32)C1 (centres unmarked) [drawing 187]

Each compound was assayed against T1, Btk (human, full length) (Homo sapiens, UniProt Q06187) (assay: Btk in vitro kinase activity assay (32P-ATP, poly[Glu:Tyr])). Conditions: 30 min pre-incubation with inhibitor, 5 nM Btk.
T1 construct: Btk (human, full length) was purchased (Invitrogen, catalog number PV3363); purchased Invitrogen PV3363
T1 sequence (Q06187 whole entry): as above
Assay type: biochemical
Procedure: General Procedure for Btk In Vitro Kinase Activity Assay.
Btk (human, full length) was purchased (Invitrogen, catalog number PV3363) and used following a procedure modified from the product literature. […] Subsequently, Btk (5 nM final concentration) in kinase assay buffer supplemented with BSA (0.1 mg/mL) was pre-incubated with inhibitors (six or ten concentrations, in duplicate, 5% DMSO final concentration) for 30 minutes at room temperature. Kinase reactions were initiated by the addition of 0.16 μCi/μL of γ-^32P-ATP (6000 Ci/mmol, NEN) and 0.2 mg/mL substrate (poly[Glu:Tyr], 4:1 Glu:Tyr) and incubated for 30 minutes at room temperature. Kinase activity was determined by spotting 5 μL of each reaction onto sheets of phosphocellulose. Each blot was washed once with 10% AcOH solution, twice with 0.1% H3PO4 solution, and once with MeOH (5-10 minutes per wash). Dried blots were exposed for 30 minutes to a storage phosphor screen and scanned by a Typhoon imager (GE Life Sciences). The data were quantified using ImageQuant (v. 5.2, Molecular Dynamics) and plotted using GraphPad Prism 4.0 software.

SMILES	pIC50
N#C/C(=C\c1ccccc1)C(=O)N1CCCC(n2nc(-c3ccc(Oc4ccccc4)cc3)c3c(N)ncnc32)C1 (centres unmarked)	> 7.00
N#C/C(=C\c1ccccc1Cl)C(=O)N1CCCC(n2nc(-c3ccc(Oc4ccccc4)cc3)c3c(N)ncnc32)C1 (centres unmarked)	> 7.00
CN(C)C(C)(C)/C=C(\C#N)C(=O)N1CCC[C@@H](n2nc(-c3ccc(Oc4ccccc4)cc3)c3c(N)ncnc32)C1	> 7.00
CC(C)(/C=C(\C#N)C(=O)N1CCC[C@@H](n2nc(-c3ccc(Oc4ccccc4)cc3)c3c(N)ncnc32)C1)CO	> 6.00
N#C/C(=C\C1CC1)C(=O)N1CCC(Cn2nc(-c3ccc(Oc4ccccc4)cc3)c3c(N)ncnc32)CC1	> 6.00
N#C/C(=C\C1CC1)C(=O)N[C@H]1CC[C@@H](n2nc(-c3ccc(Oc4ccccc4)cc3)c3c(N)ncnc32)CC1	> 6.00

Next, values leading:

pIC50	SMILES
> 7.00	N#C/C(=C\C1CC1)C(=O)N1CC[C@@H](n2nc(-c3ccc(Cl)cc3)c3c(N)ncnc32)C1
> 7.00	N#C/C(=C\C1CC1)C(=O)N1CCCC(n2nc(-c3ccc(Cl)cc3)c3c(N)ncnc32)C1 (centres unmarked)
> 6.00	N#C/C(=C\C1CC1)C(=O)N1CC[C@@H](n2nc(-c3ccc(Oc4ccccc4)cc3)c3c(N)ncnc32)C1
> 6.00	N#C/C(=C\C1CC1)C(=O)N1CC[C@H](n2nc(-c3ccc(Oc4ccccc4)cc3)c3c(N)ncnc32)C1
> 6.00	N#C/C(=C\C1CC1)C(=O)N1CCC(n2nc(-c3ccc(Oc4ccccc4)cc3)c3c(N)ncnc32)CC1
> 6.00	N#C/C(=C\C1CC1)C(=O)N1CCCC(Cn2nc(-c3ccc(Oc4ccccc4)cc3)c3c(N)ncnc32)C1 (centres unmarked) [drawing 184]
